Laboratory results as given in US20130095503A1, “SERUM SPLA2-IIA AS DIAGNOSIS MARKER FOR PROSTATE AND LUNG CANCER” (UNIVERSITY OF CINCINNATI, priority 2010, published 2013).

Experiments:
Format in all cases: cell-based, human
sPLA2-IIA gene promoter = assay: sPLA2-IIA(-800)-Luc reporter (luciferase) assay in LNCaP-AI cells; conditions: about 24 hours, FIG. 1; for effect on EGF-stimulated promoter activity of sPLA2-IIA gene: EGF ~100 ng/mL with inhibitor ~20 μM (CI-1033 ~8 μM)
Method: (§1) The role of sPLA2-IIA gene regulation in prostate cancer cells via the HER/HER2-PI3K-Akt-NF-κB pathway was investigated. A reporter assay was performed by transiently transfecting sPLA2-IIA(-800)-Luc (˜0.25 μg/well) reporter in LNCaP-AI cells (˜10^5 cells/well in 12-well plate). The cells were then treated with epidermal growth factor (hereinafter “EGF”) (˜100 ng/mL) without or with EGFR inhibitors Erlotinib (˜20 μM) and Gefitinib (˜20 μM), EGFR/HER2 dual inhibitors Lapatinib (˜20 μM) and CI-1033 (˜8 μM), phosphoinositide 3-kinase (hereinafter “PI3K”) inhibitor LY294002 (˜20 μM), and NF-κB inhibitor Bortezomib (˜20 μM) for about 24 hours. A luciferase assay was performed according to a standard protocol with Renilla luciferase as an internal control. Another reporter assay was performed wherein LNCaP-AI cells were starved in 1% stripped medium for about 24 hours. The cells were the treated with Erlotinib (˜20 μM), Gefitinib (˜20 μM), Lapatinib (˜20 μM), CI-1033 (˜8 μM), LY294002 (˜20 μM), Bortezomib (˜20 μM), and/or Heregulin-α (˜50 ng/mL) without or with EGF (˜100 ng/mL) for about 24 hours.

[1] = tested on: sPLA2-IIA protein expression in LNCaP-AI cells; assay: Western blot of sPLA2-IIA protein expression in LNCaP-AI cells; conditions: about 24 hours; for effect on sPLA2-IIA protein expression: basal states and EGF-induced expression, inhibitor ~20 μM (CI-1033 ~8 μM), FIGS. 2-4
Method: as §1
Cell extracts were then prepared and subjected to western blot analysis for sPLA2-IIA, P-Akt, Akt, and β-actin. Briefly, aliquots of samples with the same amount of protein, determined using the Bradford assay (BioRad, Hercules, Calif.), were mixed with loading buffer (final concentrations of 62.5 mM Tris-HCl, pH 6.8, 2.3% sodium dodecyl sulfate, 100 mM dithiothreitol, and 0.005% bromophenol blue), boiled, fractionated in a sodium dodecyl sulfate-polyacrylamide gel electrophoresis, and transferred onto a 0.45-μm nitrocellulose membrane (BioRad). The filters were blocked with 2% fat-free milk in PBS, and probed with primary antibody in phosphate buffered saline containing 0.1% Tween 20 (i.e., PBST) and 1% fat-free milk. The membranes were then washed four times in PBST and incubated with horseradish peroxidase-conjugated secondary antibody (BioRad) in PBST containing 1% fat-free milk. After washing four times in PBST, the membranes were visualized using the ECL Western Blotting Detection System (Amersham Co, Arlington Height, Ill.).

[2] = tested on: sPLA2-IIA secretion by LNCaP-AI cells; assay: ELISA of sPLA2-IIA secreted into culture medium of LNCaP-AI cells; conditions: inhibitor ~20 μM (CI-1033 ~8 μM), about 24 hours, FIG. 7
Method: Finally, LNCaP-AI cells were starved in 1% stripped medium for about 24 hours. The cells were then treated with Erlotinib (˜20 μM), Gefitinib (˜20 μM), Lapatinib (˜20 μM), CI-1033 (˜8 μM), LY294002 (˜20 μM), and Bortezomib (˜20 μM) for about 24 hours. Cell culture medium was collected from each sample and subjected to ELISA for sPLA2-IIA. The condition medium samples were diluted 10 times for ELISA. The average of duplicate samples was converted to nanogram per milliliter against standard curve. The data represent one of five repeated experiments.

[3] = tested on: sPLA2-IIA expression in LAPC-4 and DU145 cells; assay: Western blot of sPLA2-IIA expression in LAPC-4 and DU145 cells; conditions: Lapatinib ~20 μM, via blocking PI3K-Akt signaling, FIG. 5
Method: A reporter assay was performed by transiently transfecting sPLA2-IIA(-800)-Luc (˜0.25 μg/well) reporter in LNCaP-AI cells (˜10^5 cells/well in 12-well plate). The cells were then treated with epidermal growth factor (hereinafter “EGF”) (˜100 ng/mL) without or with EGFR inhibitors Erlotinib (˜20 μM) and Gefitinib (˜20 μM), EGFR/HER2 dual inhibitors Lapatinib (˜20 μM) and CI-1033 (˜8 μM), phosphoinositide 3-kinase (hereinafter “PI3K”) inhibitor LY294002 (˜20 μM), and NF-κB inhibitor Bortezomib (˜20 μM) for about 24 hours. A luciferase assay was performed according to a standard protocol with Renilla luciferase as an internal control. Another reporter assay was performed wherein LNCaP-AI cells were starved in 1% stripped medium for about 24 hours. […] Briefly, aliquots of samples with the same amount of protein, determined using the Bradford assay (BioRad, Hercules, Calif.), were mixed with loading buffer (final concentrations of 62.5 mM Tris-HCl, pH 6.8, 2.3% sodium dodecyl sulfate, 100 mM dithiothreitol, and 0.005% bromophenol blue), boiled, fractionated in a sodium dodecyl sulfate-polyacrylamide gel electrophoresis, and transferred onto a 0.45-μm nitrocellulose membrane (BioRad). […]

Compound	effect on EGF-stimulated promoter activity of sPLA2-IIA gene (sPLA2-IIA gene promoter)	effect on sPLA2-IIA protein expression [1]	effect on sPLA2-IIA secretion (ELISA of culture medium) [2]	effect on sPLA2-IIA expression in LAPC-4 and DU145 cells [3]	promoter activity of sPLA2-IIA gene (sPLA2-IIA gene promoter; EGF ~100 ng/mL)	sPLA2-IIA expression (western blot), stimulation by EGF ([1]; EGF ~100 ng/mL, FIGS. 2 and 3)
CC(C)C[C@H](NC(=O)[C@H](Cc1ccccc1)NC(=O)c1cnccn1)B(O)O [Bortezomib]	blocked	dramatically downregulated	significantly inhibited			
C=CC(=O)Nc1cc2c(Nc3ccc(F)c(Cl)c3)ncnc2cc1OCCCN1CCOCC1 [CI-1033]	blocked	moderate impact	moderate effect			
C#Cc1cccc(Nc2ncnc3cc(OCCOC)c(OCCOC)cc23)c1 [Erlotinib]	blocked	moderate impact	moderate effect			
COc1cc2ncnc(Nc3ccc(F)c(Cl)c3)c2cc1OCCCN1CCOCC1 [Gefitinib]	blocked	moderate impact	moderate effect			
CS(=O)(=O)CCNCc1ccc(-c2ccc3ncnc(Nc4ccc(OCc5cccc(F)c5)c(Cl)c4)c3c2)o1 [Lapatinib]	blocked	dramatically downregulated	significantly inhibited	inhibited		
EGF: epidermal growth factor					significantly stimulated	stimulated sPLA2-IIA expression
